Test results reported in the supplement of paper PMC10307832.

What was measured:
Test in all cases: relative viability (nuclei count vs DMSO), 5 days (fraction); higher = more cells survive
RAF265 + Foretinib = compound: Cn1c(Nc2ccc(C(F)(F)F)cc2)nc2cc(Oc3ccnc(-c4ncc(C(F)(F)F)[nH]4)c3)ccc21 [RAF265] + COc1cc2c(Oc3ccc(NC(=O)C4(C(=O)Nc5ccc(F)cc5)CC4)cc3F)ccnc2cc1OCCCN1CCOCC1 [Foretinib] (partner 0.25 µM)
In short: (§1)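 Relative viability is defined as nuclei in treated wells over nuclei in vehicle wells. Duplicate plates were run and medians reported. Lung cancer cell lines in 1536-well plates were dosed by pin tool one day after seeding, with one drug or with a fixed anchor-drug dose plus five library-drug doses (not always all listed) in √10 steps, and nuclei were counted after 5 days.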

RAF265 + Dasatinib = compound: Cn1c(Nc2ccc(C(F)(F)F)cc2)nc2cc(Oc3ccnc(-c4ncc(C(F)(F)F)[nH]4)c3)ccc21 [RAF265] + Cc1nc(Nc2ncc(C(=O)Nc3c(C)cccc3Cl)s2)cc(N2CCN(CCO)CC2)n1 [Dasatinib] (partner 0.075 µM)
In short: as §1

RAF265 + Pemetrexed = compound: Cn1c(Nc2ccc(C(F)(F)F)cc2)nc2cc(Oc3ccnc(-c4ncc(C(F)(F)F)[nH]4)c3)ccc21 [RAF265] + Nc1nc2[nH]cc(CCc3ccc(C(=O)N[C@@H](CCC(=O)O)C(=O)O)cc3)c2c(=O)[nH]1 [Pemetrexed] (partner 0.2 µM)
In short: as §1

RAF265 + Navitoclax = compound: Cn1c(Nc2ccc(C(F)(F)F)cc2)nc2cc(Oc3ccnc(-c4ncc(C(F)(F)F)[nH]4)c3)ccc21 [RAF265] + CC1(C)CCC(c2ccc(Cl)cc2)=C(CN2CCN(c3ccc(C(=O)NS(=O)(=O)c4ccc(N[C@H](CCN5CCOCC5)CSc5ccccc5)c(S(=O)(=O)C(F)(F)F)c4)cc3)CC2)C1 [Navitoclax] (partner 0.5 µM)
In short: as §1

Cell Line	relative viability (RAF265 + Foretinib; first compound 0.01 µM)	relative viability (RAF265 + Foretinib; first compound 0.03162 µM)	relative viability (RAF265 + Foretinib; first compound 0.1 µM)	relative viability (RAF265 + Foretinib; first compound 0.3162 µM)	relative viability (RAF265 + Foretinib; first compound 1 µM)	relative viability (RAF265 + Dasatinib; first compound 0.01 µM)	relative viability (RAF265 + Dasatinib; first compound 0.03162 µM)	relative viability (RAF265 + Dasatinib; first compound 0.1 µM)	relative viability (RAF265 + Dasatinib; first compound 0.3162 µM)	relative viability (RAF265 + Dasatinib; first compound 1 µM)	relative viability (RAF265 + Pemetrexed; first compound 0.01 µM)	relative viability (RAF265 + Pemetrexed; first compound 0.03162 µM)	relative viability (RAF265 + Pemetrexed; first compound 0.1 µM)	relative viability (RAF265 + Pemetrexed; first compound 0.3162 µM)	relative viability (RAF265 + Pemetrexed; first compound 1 µM)	relative viability (RAF265 + Navitoclax; first compound 0.01 µM)	relative viability (RAF265 + Navitoclax; first compound 0.03162 µM)	relative viability (RAF265 + Navitoclax; first compound 0.1 µM)	relative viability (RAF265 + Navitoclax; first compound 0.3162 µM)	relative viability (RAF265 + Navitoclax; first compound 1 µM)
LOU-NH91	1.04	0.845	0.954	0.582	0.71	0.563	0.49	0.497	0.45	0.343	0.365	0.336	0.427	0.419	0.441	0.731	0.594	0.757	0.389	0.387
LU99A	0.837	0.745	0.624	0.522	0.332	0.534	0.454	0.472	0.3	0.179	0.199	0.186	0.161	0.177	0.241	0.703	0.688	0.613	0.514	0.325
LXF-289	0.999	0.986	0.938	0.875	0.709	0.246	0.152	0.16	0.142	0.0862	0.95	0.841	0.917	0.776	0.764	0.919	0.905	0.935	0.818	0.807
NCI-H23	0.741	0.847	0.739	0.724	0.442	0.716	0.75	0.622	0.48	0.325	0.633	0.573	0.53	0.351	0.366	0.886	0.825	0.775	0.553	0.317
NCI-H322M	1.09	1.03	0.781	0.402	0.275	0.267	0.278	0.229	0.303	0.213	0.587	0.605	0.472	0.357	0.335	1.18	1.14	1.15	0.381	0.274
NCI-H441	1.28	1.04	0.966	0.884	0.623	0.692	0.773	0.518	0.431	0.496	0.267	0.251	0.258	0.223	0.224	0.582		0.515	0.5	0.776
NCI-H460	1.06	0.982	1.06	1.04	1.1	0.686	0.535	0.596	0.371	0.266	0.0601	0.0679	0.0652	0.0628	0.0612	1.17	1.08	1.21		0.852
NCI-H520	0.763	0.585	0.749	0.819	0.474	0.177	0.206	0.197	0.187	0.171	0.637	0.536	0.629	0.507	0.36	1.04	0.888	1.07	0.848	0.706
NCI-H596	0.739	0.929	0.866	0.691	0.626	0.63	0.76	0.582	0.612	0.366	0.565	0.504	0.474	0.538	0.448	1.02	0.862	1.03	1.06	0.576
NCI-H647	1.14	0.867	0.957	0.979	0.659	0.197	0.132	0.242	0.0861	0.0896	0.156	0.161	0.174	0.142	0.178	1.2	0.954	0.977	0.895	0.458
NCI-H838	1.06	1.07	1.01	1.07	0.951	0.332	0.3	0.288	0.256	0.256	0.269	0.269	0.265	0.299	0.237	1.23	1.14	1.15	1.1	1.01
NCI-H1355	0.65	0.923	0.823	0.464	0.38	0.804	0.709	0.545	0.601	0.264	1.05	1.02	0.972	0.96	0.714	1.01	0.831	0.919	0.532	0.264
NCI-H1395	0.915	1.02	0.972	0.972	0.697	0.449	0.432	0.395	0.336	0.372	0.893	0.878	0.824	0.65	0.683	1.46	1.16	1.15	1.28	0.867
NCI-H1437	1.22	1.28	1.28	1.33	1.31	0.451	0.416	0.403	0.397	0.395	0.346	0.296	0.326	0.285	0.278	1.1	1.06	1.01	1.18	1.1
NCI-H1650	1.01	1.29	1.35	1.17	0.953	0.413	0.392	0.342	0.399	0.282	0.336	0.362	0.431	0.324	0.369	1.17	1.18	1.53	1.19	1.22
NCI-H1651	0.86	0.808	0.75	0.844	0.584	0.417	0.408	0.368	0.398	0.263	0.587	0.567	0.431	0.494	0.532	0.992	0.884	1.06	0.874	0.871

Cell Line	relative viability (RAF265 + Foretinib; first compound 0.01 µM)	relative viability (RAF265 + Foretinib; first compound 0.03162 µM)	relative viability (RAF265 + Foretinib; first compound 0.1 µM)	relative viability (RAF265 + Foretinib; first compound 0.3162 µM)	relative viability (RAF265 + Foretinib; first compound 1 µM)	relative viability (RAF265 + Dasatinib; first compound 0.01 µM)	relative viability (RAF265 + Dasatinib; first compound 0.03162 µM)	relative viability (RAF265 + Dasatinib; first compound 0.1 µM)	relative viability (RAF265 + Dasatinib; first compound 0.3162 µM)	relative viability (RAF265 + Dasatinib; first compound 1 µM)	relative viability (RAF265 + Pemetrexed; first compound 0.01 µM)	relative viability (RAF265 + Pemetrexed; first compound 0.03162 µM)	relative viability (RAF265 + Pemetrexed; first compound 0.1 µM)	relative viability (RAF265 + Pemetrexed; first compound 0.3162 µM)	relative viability (RAF265 + Pemetrexed; first compound 1 µM)	relative viability (RAF265 + Navitoclax; first compound 0.01 µM)	relative viability (RAF265 + Navitoclax; first compound 0.03162 µM)	relative viability (RAF265 + Navitoclax; first compound 0.1 µM)	relative viability (RAF265 + Navitoclax; first compound 0.3162 µM)	relative viability (RAF265 + Navitoclax; first compound 1 µM)
NCI-H1666	1.11	0.936	0.985	1.01	0.81	0.868	0.814	0.768	0.87	0.781	0.787	0.782	0.904	0.888	0.754	1.01	1	0.882	0.931	0.454
NCI-H1734	0.858	0.701	0.627	0.647	0.454	0.482	0.373	0.369	0.358	0.266	0.386	0.43	0.469	0.507	0.417	0.886	0.656	0.825	0.628	0.348
NCI-H1755	0.951	0.884	0.926	0.727	0.568	0.404	0.427	0.33	0.294	0.195	0.771	0.361	0.503	0.519	0.497	0.999	0.879	0.764	0.671	0.356
NCI-H1793	0.632	0.616	0.624		0.261	0.486	0.401	0.361		0.227	1.07	0.774	0.553	0.234	0.412	0.351	0.379	0.316	0.336	0.21
NCI-H1915	1.09	1.05	0.869	0.348	0.306	0.342	0.332	0.213	0.151	0.137	0.463	0.419	0.486	0.406	0.361	0.76	0.72	0.712	0.407	0.281
NCI-H1944	0.939	0.913	0.906	0.762	0.461	0.284	0.277	0.225	0.178	0.19	0.849	0.859	0.632	0.405	0.472	1.11	1.06	1.15	0.798	0.86
NCI-H1975	0.88	0.74	0.639	0.383	0.333	0.335	0.226	0.237	0.177	0.124	0.307	0.256	0.234	0.203	0.19	1.17	0.812	0.912	0.528	0.324
NCI-H1993	0.86	0.729	0.783	0.777	0.575	0.618	0.497	0.545	0.619	0.528	0.548	0.605	0.508	0.51	0.581	1.1	0.947	1.08	0.719	0.783
NCI-H2009	1.29	1.25	1.14	1.1	0.658	0.3	0.262	0.227	0.214	0.147	1.01	0.955	1.02	0.965	0.885	1.19	1.15	1.16	1.13	0.858
NCI-H2023	0.86	0.875	0.893		0.553	0.601	0.562	0.516	0.419	0.365	0.21	0.251	0.21	0.251	0.236	1.09	1.02	1.06	1.09	0.908
NCI-H2085	0.859	0.929	0.957	0.987	1.06	0.241	0.315	0.289	0.205	0.276	1.09	0.768	0.938	0.806	0.903	1.17	1.12	1.16	1.27	1.09
NCI-H2087	0.967	1.1	0.938	0.797	0.663	0.743	0.76	0.6	0.639	0.383	0.599	0.669	0.549	0.649	0.543	0.995	0.823	0.692	0.683	0.568
NCI-H2126	1.16	1.2	1.17	1.11	0.668	0.716	0.656	0.622	0.464	0.354	0.703	0.669	0.65	0.605	0.554	0.813	0.826	0.866	0.687	0.616
NCI-H2170	1.05	0.971	0.978	0.805	0.88	0.663	0.474	0.539	0.241	0.432	0.245	0.258	0.263	0.261	0.251	0.586	0.434	0.462	0.3	0.383
NCI-H2228	0.893	0.819	0.781	0.542	0.386	0.484	0.535	0.397	0.179	0.139	0.325	0.353	0.303	0.297	0.268	0.741	0.971	0.903	0.945	0.726
